From US7655756B2 (Johnson & Johnson Pharmaceutical Research & Development, LLC, priority 2005, dated 2010)

Tests used:
ERRα = biological target: T1, ERRα (Homo sapiens, UniProt P11474); assay: ThermoFluor thermal shift assay, ERRα; format: binding; conditions: 100 μM test compound; 0.1 mg/mL protein, 25 mM HEPES pH 8.0, 25 μM ANS, 2% DMSO; Tm free protein 54.4 °C; read-out: ΔTm, thermal stabilization of ERRα
T1 sequence (P11474 193-421 limits assumed): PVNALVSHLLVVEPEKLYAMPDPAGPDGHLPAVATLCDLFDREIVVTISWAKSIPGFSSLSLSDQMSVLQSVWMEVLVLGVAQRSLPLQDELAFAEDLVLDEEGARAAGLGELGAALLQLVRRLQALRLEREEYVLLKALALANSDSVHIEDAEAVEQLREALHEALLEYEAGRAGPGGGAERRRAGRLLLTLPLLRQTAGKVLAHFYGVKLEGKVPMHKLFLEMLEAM

ERα = biological target: T2, ERα (Homo sapiens, UniProt P03372); assay: ThermoFluor thermal shift assay, ERα; format: binding
T2 sequence (P03372 1-595): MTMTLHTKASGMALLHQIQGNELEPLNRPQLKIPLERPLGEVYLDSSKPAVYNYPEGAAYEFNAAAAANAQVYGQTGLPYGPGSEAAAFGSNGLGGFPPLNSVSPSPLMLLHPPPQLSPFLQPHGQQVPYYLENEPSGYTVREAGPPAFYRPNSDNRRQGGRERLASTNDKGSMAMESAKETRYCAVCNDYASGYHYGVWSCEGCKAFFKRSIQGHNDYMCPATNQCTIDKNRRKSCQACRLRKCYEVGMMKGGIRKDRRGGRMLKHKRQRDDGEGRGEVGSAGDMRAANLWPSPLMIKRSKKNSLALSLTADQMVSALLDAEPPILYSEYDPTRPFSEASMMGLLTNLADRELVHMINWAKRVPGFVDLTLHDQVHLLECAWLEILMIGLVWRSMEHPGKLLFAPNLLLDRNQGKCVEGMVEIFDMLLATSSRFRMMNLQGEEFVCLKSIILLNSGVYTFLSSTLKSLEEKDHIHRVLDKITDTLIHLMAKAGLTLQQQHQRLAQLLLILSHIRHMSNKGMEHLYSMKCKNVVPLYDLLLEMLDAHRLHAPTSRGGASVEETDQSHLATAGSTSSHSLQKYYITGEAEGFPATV

ERRγ-SRC2 complex = biological target: T3, ERRγ-SRC2 complex (Homo sapiens, UniProt P62508); assay: TR-FRET co-activator recruitment assay; format: biochemical; conditions: for Displacement of co-activator peptide from ERRγ (antagonism), in words: 6 nM ERRγ LBD, 6 nM GST-SRC-2 peptide
T3 construct: made in house; host or cells: E. coli BL21(DE3) (ERRγ LBD)
T3 sequence (P62508 229-458): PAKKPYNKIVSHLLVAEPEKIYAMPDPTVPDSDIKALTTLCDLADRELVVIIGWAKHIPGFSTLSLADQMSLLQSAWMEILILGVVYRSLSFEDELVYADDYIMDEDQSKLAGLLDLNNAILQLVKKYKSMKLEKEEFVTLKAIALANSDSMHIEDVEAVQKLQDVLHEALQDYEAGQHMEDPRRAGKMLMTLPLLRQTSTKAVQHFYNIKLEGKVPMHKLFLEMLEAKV
Procedure: For FRET measurements, the reaction was buffered in 25 mM Tris pH 8, 2.5 mM Hepes, 20 mM KCl, 1 mM DTT, and 0.05 mg/mL delipidated BSA.
Time-resolved Fluorescence resonance energy transfer (FRET) experiments were performed to examine the functional response of ERRγ ligands.
For FRET measurements, the reaction was buffered in 25 mM Tris pH 8, 2.5 mM Hepes, 20 mM KCl, 1 mM DTT, and 0.05 mg/mL BSA (-lipids). […] Reactions were allowed to reach equilibrium at 25° C. for 4-18 hours before collecting data on the Analyst from LJL Biosystems (Molecular Devices Sunnyvale, Calif.). […] Dose response curves were fitted using a hyperbolic equation and the data reported is the average of three independent experiments.

`Cc1cc(O)ccc1Cl` [ClCH3Ph, 4-chloro, 3-methyl phenol] showed a ΔTm at 100 µM (ERRα) of 0.1 °C, a Kd (ERα; calculated at reference temperature 25 °C from ΔTm of Table II, ΔHu 112 kcal/mol, read-out: Estimated dissociation constant, ERα) of 37.3 µM and a ΔTm at 100 µM (ERα; pH 8, read-out: ΔTm, thermal stabilization of ERα) of 0.4 °C. The “Enhancement in the affinity of the receptor for co-activator peptide fragments, in words” value (ERRγ-SRC2 complex) was “not able to demonstrate”, the “Displacement of co-activator peptide from ERRγ (antagonism), in words” value (ERRγ-SRC2 complex) was “neither ligand displaced co-activator peptide” and the “Displacement of co-activator peptide from ERRγ (antagonism), in words” value (ERRγ-SRC2 complex; listed as ClCh3PH) was “ineffective”.
